{"source": "patent US10239844B2", "about": "“Disubstituted triazole analogs” (BioVentures, LLC, priority 2014, dated 2019)", "format_in_all_cases": "cell-based, human", "key": {"CCRF-CEM": {"tested_on": "CCRF-CEM", "test": "NCI 60 panel five-dose growth inhibition, Leukemia"}, "HL-60(T13)": {"tested_on": "HL-60(T13)", "test": "NCI 60 panel five-dose growth inhibition, Leukemia"}, "MOLT-4": {"tested_on": "MOLT-4", "test": "NCI 60 panel five-dose growth inhibition, Leukemia", "settings": "MOLT-4, Leukemia"}, "RPMI-8226": {"tested_on": "RPMI-8226", "test": "NCI 60 panel five-dose growth inhibition, Leukemia", "settings": "RPMI-8226, Leukemia"}, "SR": {"tested_on": "SR", "test": "NCI 60 panel five-dose growth inhibition, Leukemia"}, "A549/ATCC": {"tested_on": "A549/ATCC", "test": "NCI 60 panel five-dose growth inhibition, Non-Small Cell Lung Cancer"}, "HOP-92": {"tested_on": "HOP-92", "test": "NCI 60 panel five-dose growth inhibition, Non-Small Cell Lung Cancer", "settings": "HOP-92, Non-Small Cell Lung Cancer"}, "NCI-H23": {"tested_on": "NCI-H23", "test": "NCI 60 panel five-dose growth inhibition, Non-Small Cell Lung Cancer"}, "COLO 205": {"tested_on": "COLO 205", "test": "NCI 60 panel five-dose growth inhibition, Colon Cancer", "settings": "COLO 205, Colon Cancer"}, "HCC-2998": {"tested_on": "HCC-2998", "test": "NCI 60 panel five-dose growth inhibition, Colon Cancer", "settings": "HCC-2998, Colon Cancer"}, "HT29": {"tested_on": "HT29", "test": "NCI 60 panel five-dose growth inhibition, Colon Cancer"}, "SW-620": {"tested_on": "SW-620", "test": "NCI 60 panel five-dose growth inhibition, Colon Cancer", "settings": "SW-620, Colon Cancer"}, "SF-268": {"tested_on": "SF-268", "test": "NCI 60 panel five-dose growth inhibition, CNS Cancer", "settings": "SF-268, CNS Cancer"}, "SF-295": {"tested_on": "SF-295", "test": "NCI 60 panel five-dose growth inhibition, CNS Cancer", "settings": "SF-295, CNS Cancer"}, "SF-539": {"tested_on": "SF-539", "test": "NCI 60 panel five-dose growth inhibition, CNS Cancer", "settings": "SF-539, CNS Cancer"}, "SNB-19": {"tested_on": "SNB-19", "test": "NCI 60 panel five-dose growth inhibition, CNS Cancer", "settings": "SNB-19, CNS Cancer"}, "SNB-75": {"tested_on": "SNB-75", "test": "NCI 60 panel five-dose growth inhibition, CNS Cancer", "settings": "Homo sapiens; SNB-75, CNS Cancer"}, "LOX IMVI": {"tested_on": "LOX IMVI", "test": "NCI 60 panel five-dose growth inhibition, Melanoma"}, "M14": {"tested_on": "M14", "test": "NCI 60 panel five-dose growth inhibition, Melanoma", "settings": "Homo sapiens"}, "MDA-MB-435": {"tested_on": "MDA-MB-435", "test": "NCI 60 panel five-dose growth inhibition, Melanoma", "settings": "Homo sapiens; MDA-MB-435, Melanoma"}, "SK-MEL-2": {"tested_on": "SK-MEL-2", "test": "NCI 60 panel five-dose growth inhibition, Melanoma", "settings": "SK-MEL-2, Melanoma"}, "SK-MEL-28": {"tested_on": "SK-MEL-28", "test": "NCI 60 panel five-dose growth inhibition, Melanoma", "settings": "SK-MEL-28, Melanoma"}, "5K-MEL-5": {"tested_on": "5K-MEL-5", "test": "NCI 60 panel five-dose growth inhibition, Melanoma", "settings": "5K-MEL-5, Melanoma"}, "UACC-62": {"tested_on": "UACC-62", "test": "NCI 60 panel five-dose growth inhibition, Melanoma"}, "IGROV1": {"tested_on": "IGROV1", "test": "NCI 60 panel five-dose growth inhibition, Ovarian Cancer"}, "OVCA R-3": {"tested_on": "OVCA R-3", "test": "NCI 60 panel five-dose growth inhibition, Ovarian Cancer", "settings": "OVCA R-3, Ovarian Cancer"}, "NCI/ADR-RES": {"tested_on": "NCI/ADR-RES", "test": "NCI 60 panel five-dose growth inhibition, Ovarian Cancer"}, "SK-OV-3": {"tested_on": "SK-OV-3", "test": "NCI 60 panel five-dose growth inhibition, Ovarian Cancer", "settings": "SK-OV-3, Ovarian Cancer"}, "786-0": {"tested_on": "786-0", "test": "NCI 60 panel five-dose growth inhibition, Renal Cancer", "settings": "786-0, Renal Cancer"}, "U0-31": {"tested_on": "U0-31", "test": "NCI 60 panel five-dose growth inhibition, Renal Cancer", "settings": "U0-31, Renal Cancer"}, "PC-3": {"tested_on": "PC-3", "test": "NCI 60 panel five-dose growth inhibition, Prostate Cancer", "settings": "PC-3, Prostate Cancer"}, "DU-145": {"tested_on": "DU-145", "test": "NCI 60 panel five-dose growth inhibition, Prostate Cancer", "settings": "Homo sapiens; DU-145, Prostate Cancer"}, "MCF7": {"tested_on": "MCF7", "test": "NCI 60 panel five-dose growth inhibition, Breast Cancer"}, "MDA-MB-231/ATCC": {"tested_on": "MDA-MB-231/ATCC", "test": "NCI 60 panel five-dose growth inhibition, Breast Cancer"}, "HS 5781": {"tested_on": "HS 5781", "test": "NCI 60 panel five-dose growth inhibition, Breast Cancer", "settings": "HS 5781, Breast Cancer"}, "MDA-MB-468": {"tested_on": "MDA-MB-468", "test": "NCI 60 panel five-dose growth inhibition, Breast Cancer", "settings": "MDA-MB-468, Breast Cancer"}}}
{"compound": "COc1cc(-c2n[nH]nc2-c2cc(OC)c(OC)c(OC)c2)cc(OC)c1OC", "note": "[Example 3, 4,5-bis(3,4,5-trimethoxyphenyl)-2H-1,2,3-triazole]", "values": [{"measurement": "TGI", "setting": "CCRF-CEM", "result": ">100000", "unit": "nM"}, {"measurement": "GI50", "setting": "CCRF-CEM; Homo sapiens", "result": 37.3, "unit": "nM"}, {"measurement": "TGI", "setting": "HL-60(T13)", "result": 5740, "unit": "nM"}, {"measurement": "GI50", "setting": "HL-60(T13); Homo sapiens", "result": 30, "unit": "nM"}, {"measurement": "GI50", "setting": "MOLT-4; Homo sapiens", "result": 68.2, "unit": "nM"}, {"measurement": "TGI", "setting": "MOLT-4", "result": ">100000", "unit": "nM"}, {"measurement": "GI50", "setting": "RPMI-8226; Homo sapiens", "result": 36.5, "unit": "nM"}, {"measurement": "TGI", "setting": "RPMI-8226", "result": 87600, "unit": "nM"}, {"measurement": "TGI", "setting": "SR", "result": ">100000", "unit": "nM"}, {"measurement": "GI50", "setting": "SR; Homo sapiens", "result": 21.1, "unit": "nM"}, {"measurement": "TGI", "setting": "A549/ATCC", "result": ">100000", "unit": "nM"}, {"measurement": "GI50", "setting": "A549/ATCC; Homo sapiens", "result": 54.1, "unit": "nM"}, {"measurement": "TGI", "setting": "HOP-92", "result": 11300, "unit": "nM"}, {"measurement": "GI50", "setting": "HOP-92; Homo sapiens", "result": 98.9, "unit": "nM"}, {"measurement": "TGI", "setting": "NCI-H23", "result": ">100000", "unit": "nM"}, {"measurement": "GI50", "setting": "NCI-H23; Homo sapiens", "result": 64.9, "unit": "nM"}, {"measurement": "TGI", "setting": "COLO 205", "result": 1160, "unit": "nM"}, {"measurement": "GI50", "setting": "COLO 205; Homo sapiens", "result": 228, "unit": "nM"}, {"measurement": "TGI", "setting": "HCC-2998", "result": ">100000", "unit": "nM"}, {"measurement": "GI50", "setting": "HCC-2998; Homo sapiens", "result": 230, "unit": "nM"}, {"measurement": "TGI", "setting": "HT29", "result": 14500, "unit": "nM"}, {"measurement": "GI50", "setting": "HT29; Homo sapiens, HT-29", "result": 214, "unit": "nM"}, {"measurement": "GI50", "setting": "SW-620; Homo sapiens", "result": 40.6, "unit": "nM"}, {"measurement": "TGI", "setting": "SW-620", "result": ">100000", "unit": "nM"}, {"measurement": "GI50", "setting": "SF-268; Homo sapiens", "result": 503, "unit": "nM"}, {"measurement": "TGI", "setting": "SF-268", "result": ">100000", "unit": "nM"}, {"measurement": "GI50", "setting": "SF-295; Homo sapiens", "result": 14.4, "unit": "nM"}, {"measurement": "TGI", "setting": "SF-295", "result": ">100000", "unit": "nM"}, {"measurement": "GI50", "setting": "SF-539; Homo sapiens", "result": 20, "unit": "nM"}, {"measurement": "TGI", "setting": "SF-539", "result": 50, "unit": "nM"}, {"measurement": "GI50", "setting": "SNB-19; Homo sapiens", "result": 52.5, "unit": "nM"}, {"measurement": "TGI", "setting": "SNB-19", "result": ">100000", "unit": "nM"}, {"measurement": "GI50", "setting": "SNB-75", "result": 15.7, "unit": "nM"}, {"measurement": "TGI", "setting": "LOX IMVI", "result": ">100000", "unit": "nM"}, {"measurement": "GI50", "setting": "LOX IMVI; Homo sapiens", "result": 65.2, "unit": "nM"}, {"measurement": "GI50", "setting": "M14", "result": 21.5, "unit": "nM"}, {"measurement": "GI50", "setting": "MDA-MB-435", "result": "< 10", "unit": "nM"}, {"measurement": "GI50", "setting": "SK-MEL-2; Homo sapiens", "result": 26.9, "unit": "nM"}, {"measurement": "TGI", "setting": "SK-MEL-2", "result": 4240, "unit": "nM"}, {"measurement": "GI50", "setting": "SK-MEL-28; Homo sapiens", "result": "> 1000", "unit": "nM"}, {"measurement": "TGI", "setting": "SK-MEL-28", "result": 6330, "unit": "nM"}, {"measurement": "TGI", "setting": "5K-MEL-5", "result": 350, "unit": "nM"}, {"measurement": "GI50", "setting": "5K-MEL-5; Homo sapiens", "result": 12.6, "unit": "nM"}, {"measurement": "GI50", "setting": "UACC-62; Homo sapiens, UACC-62, UACC-62, Melanoma", "result": 157, "unit": "nM"}, {"measurement": "TGI", "setting": "UACC-62; UACC-62, Melanoma", "result": 4610, "unit": "nM"}, {"measurement": "TGI", "setting": "IGROV1", "result": ">100000", "unit": "nM"}, {"measurement": "GI50", "setting": "IGROV1; Homo sapiens, IGROV-1", "result": 64.8, "unit": "nM"}, {"measurement": "GI50", "setting": "OVCA R-3; Homo sapiens, OVCAR-3", "result": 10.8, "unit": "nM"}, {"measurement": "TGI", "setting": "OVCA R-3", "result": 40, "unit": "nM"}, {"measurement": "TGI", "setting": "NCI/ADR-RES", "result": 66100, "unit": "nM"}, {"measurement": "GI50", "setting": "NCI/ADR-RES; Homo sapiens", "result": 23.1, "unit": "nM"}, {"measurement": "GI50", "setting": "SK-OV-3; Homo sapiens", "result": 75, "unit": "nM"}, {"measurement": "TGI", "setting": "SK-OV-3", "result": 97700, "unit": "nM"}, {"measurement": "TGI", "setting": "786-0", "result": ">100000", "unit": "nM"}, {"measurement": "GI50", "setting": "786-0; Homo sapiens", "result": 42.8, "unit": "nM"}, {"measurement": "GI50", "setting": "U0-31; Homo sapiens", "result": 92.3, "unit": "nM"}, {"measurement": "TGI", "setting": "U0-31", "result": ">100000", "unit": "nM"}, {"measurement": "GI50", "setting": "PC-3; Homo sapiens", "result": 45.8, "unit": "nM"}, {"measurement": "TGI", "setting": "PC-3", "result": ">100000", "unit": "nM"}, {"measurement": "GI50", "setting": "DU-145", "result": 26.6, "unit": "nM"}, {"measurement": "TGI", "setting": "MCF7", "result": ">100000", "unit": "nM"}, {"measurement": "GI50", "setting": "MCF7; Homo sapiens", "result": 26.9, "unit": "nM"}, {"measurement": "TGI", "setting": "MDA-MB-231/ATCC", "result": ">100000", "unit": "nM"}, {"measurement": "GI50", "setting": "MDA-MB-231/ATCC; Homo sapiens", "result": 94.7, "unit": "nM"}, {"measurement": "TGI", "setting": "HS 5781", "result": ">100000", "unit": "nM"}, {"measurement": "GI50", "setting": "MDA-MB-468; Homo sapiens", "result": 34.6, "unit": "nM"}, {"measurement": "TGI", "setting": "MDA-MB-468", "result": 26000, "unit": "nM"}]}
